Reference: publication PMC9827972, “Identification of 2,4‐Dinitro‐Biphenyl‐Based Compounds as MAPEG Inhibitors” (Chemmedchem, 2022)
Read-outs that look alike come from different tables or passages of the source.

Tests used:
[1] = target: T1, human recombinant LTC4S (Homo sapiens, UniProt Q16873); experiment: Determination of LTC4 synthase activity in microsomes of HEK293 cells expressing LTC4S; assay type: biochemical; details: for inhibition of LTC4S activity (in words): microsomal preparations of HEK293 cells expressing human recombinant LTC4S
T1 construct: expressed in transfected cells; host or cells: HEK293 cells stably expressing LTC4S; microsomal fraction
T1 sequence (Q16873 1-150): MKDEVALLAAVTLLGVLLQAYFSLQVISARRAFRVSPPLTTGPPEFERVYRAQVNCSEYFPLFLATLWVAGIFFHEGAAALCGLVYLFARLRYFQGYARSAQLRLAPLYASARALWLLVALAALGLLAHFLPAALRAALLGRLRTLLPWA
Method: Determination of LTC4 synthase activity. HEK293 cells stably expressing human recombinant LTC4S (HEK_LTC4S) were used to generate microsomes containing LTC4S. Briefly, HEK_LTC4S cells were frozen in liquid nitrogen and sonicated 3×20 s at 4 °C in homogenization buffer (0.1 M potassium phosphate buffer, pH 7.4, 1 mM phenylmethanesulfonylfluoride, 60 μg/mL soybean trypsin inhibitor, 1 μg/mL leupeptin, 2.5 mM glutathione, and 250 mM sucrose). Lysates were sequentially centrifuged at 10,000×g, 10 min at 4 °C and 174,000×g for 1 h at 4 °C. The microsomal fraction (2.5 μg) was resuspended in assay buffer (0.1 M potassium buffer pH 7.4, plus 5 mM glutathione) and preincubated with the test compound or vehicle (0.1 % DMSO) for 10 min at 4 °C. The reactions were started by adding 1 μM LTA4‐methyl ester (Cayman, Ann Arbor, MI) and stopped after 10 min incubation at 4 °C by 1 vol. ice‐cold methanol. Acidified PBS and LTC4‐methyl ester‐d5 as internal standard were added prior solid phase extraction, and LTC4‐methyl ester formation was analyzed by UPLC‐MS/MS as described.[43] UPLC‐MS/MS was carried out by Acquity UPLC BEH C18 column (1.7 μm, 2.1×50 mm, waters) and QTRAP 5500 Mass spectrometer (AB Sciex). LTC4‐methyl ester and LTC4‐d5 methyl ester (standard) were detected by multiple reaction monitoring in the negative ion mode by a method described previously.[44]
Reversed phase liquid chromatography and mass spectrometry. LTC4S metabolites were separated on an Acquity ultra performance liquid chromatography (UPLC) BEH C18 column (1.7 μm, 2.1×50 mm, Waters, Milford, MA) using an Acquity^TM UPLC system (Waters, Milford, MA, USA) as previously described.[42] The chromatography system was coupled to a QTRAP 5500 Mass Spectrometer (AB Sciex, Darmstadt, Germany) equipped with an electrospray ionization source. LTC4S metabolites were quantified by multiple reaction monitoring in the negative using a previously reported method with a lower limit of detection of 150 to 600 pg mL^−1 and linear quantification range up to 200 ng mL^−1.[22] Automatic peak integration was performed with ANALYST 1.6 software (Sciex, Darmstadt, Germany) using IntelliQuan default settings. Data were normalized on the internal standard PGB1 and are given as relative intensities.

[2] = test system: 5‐LOX product formation in human neutrophils; experiment: 5-LOX product formation in intact human neutrophils stimulated with A23187 (FLAP-dependent); details: Neutrophil, read-out: IC50 cell‐based 5‐LOX
Method: Blood cell isolation and cultivation of cell lines. Human neutrophils were freshly isolated from peripheral blood obtained at the Institute for Transfusion Medicine of the University Hospital Jena (Germany) as described.[45] Briefly, human peripheral blood was collected in heparinized tubes (16 I. E. heparin/mL blood) by venipuncture from fasted (12 h) adult healthy volunteers, with consent, and leukocyte concentrates were prepared by centrifugation (4000×g, 20 min, 20 °C). The subjects had no apparent inflammatory conditions and had not taken anti‐inflammatory drugs for at least ten days prior to blood collection. Neutrophils were immediately isolated by dextran sedimentation and centrifugation on Nycoprep cushions (PAA Laboratories, Linz, Austria) and hypotonic lysis of erythrocytes was performed under hypotonic conditions. Neutrophils were finally resuspended in PBS pH 7.4 containing 1 mg/mL glucose and 1 mM CaCl2 (purity >96‐97 %).
5‐LOX activity assay. […] […] 30 μL 1 N HCl and 500 μL PBS, and 200 ng PGB1 were added and the samples were subjected to solid phase extraction on C18‐columns (100 mg, UCT, Bristol, PA, USA). 5‐LOX products (LTB4, all‐trans isomers of LTB4, and 5‐hydro(pero)xy‐6,8,11,14‐ eicosatetraenoic acid (5‐H(p)ETE) were analyzed by RP‐HPLC and quantities calculated referencing to the internal standard PGB1.

[3] = target: T2, human recombinant 5‐LOX (Homo sapiens, UniProt P09917); experiment: Human recombinant 5-LOX activity assay (cell-free); assay type: biochemical; details: 20 μM arachidonic acid
T2 construct: made in house; host or cells: Escherichia coli BL21 (DE3)
T2 sequence (P09917 1-674): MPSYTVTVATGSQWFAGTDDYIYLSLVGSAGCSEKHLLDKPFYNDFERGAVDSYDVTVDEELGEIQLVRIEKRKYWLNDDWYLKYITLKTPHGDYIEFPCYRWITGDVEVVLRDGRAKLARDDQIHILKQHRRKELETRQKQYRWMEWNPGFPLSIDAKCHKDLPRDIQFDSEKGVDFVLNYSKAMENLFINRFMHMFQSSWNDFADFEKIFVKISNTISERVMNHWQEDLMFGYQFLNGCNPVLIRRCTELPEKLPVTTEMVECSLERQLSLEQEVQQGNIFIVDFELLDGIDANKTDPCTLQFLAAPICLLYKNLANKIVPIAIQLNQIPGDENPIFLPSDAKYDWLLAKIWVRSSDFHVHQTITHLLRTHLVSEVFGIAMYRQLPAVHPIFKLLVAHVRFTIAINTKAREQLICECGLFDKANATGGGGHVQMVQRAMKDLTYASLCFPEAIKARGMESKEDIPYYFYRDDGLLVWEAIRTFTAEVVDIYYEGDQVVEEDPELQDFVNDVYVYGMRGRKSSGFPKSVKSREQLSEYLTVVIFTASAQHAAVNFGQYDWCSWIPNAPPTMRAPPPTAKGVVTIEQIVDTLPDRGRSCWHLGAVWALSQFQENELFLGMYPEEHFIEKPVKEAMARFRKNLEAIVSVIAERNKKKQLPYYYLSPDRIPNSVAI
Method: Human recombinant 5‐LOX activity assay. Human recombinant 5‐LOX was expressed in Escherichia coli (E. coli BL21 (DE3)) cells and partially purified by affinity chromatography using an ATP‐agarose column as described.[22] Semi‐purified 5‐LOX (specific activity: 1.6 ± 0.2 μg 5‐LOX products per μg protein) was diluted in PBS containing EDTA (1 mM) and ATP (1 mM) to a concentration of 0.5 μg mL^−1 and immediately pre‐incubated with the test compounds (1 μL in DMSO; final DMSO concentration: 0.1 %) for 10 min at 4 °C. Samples were pre‐warmed for 30 s at 37 °C, and 5‐LOX product formation was initiated adding 2 mM CaCl2 and 20 μM arachidonic acid. The reaction was stopped after 10 min at 37 °C adding 1 mL ice‐cold methanol. Formed 5‐LOX metabolites (all‐trans isomers of LTB4 and 5‐H(p)ETE) were extracted and an aliquot of 50 μL analyzed by reversed phase‐HPLC (RP‐HPLC) as described.[23] Data were normalized to the vehicle control to avoid variations independent of test compounds.

[4] = target: T3, mPGES‐1 (Homo sapiens, UniProt O14684); experiment: mPGES-1 washout assay in microsomes of A549 cells; assay type: biochemical; details: for residual mPGES-1 enzyme activity: % of vehicle control
T3 construct: Microsomes derived from A549 cells expressing mPGES‐1; endogenous in cells; host or cells: A549 cells (microsomes)
T3 sequence (O14684 1-152): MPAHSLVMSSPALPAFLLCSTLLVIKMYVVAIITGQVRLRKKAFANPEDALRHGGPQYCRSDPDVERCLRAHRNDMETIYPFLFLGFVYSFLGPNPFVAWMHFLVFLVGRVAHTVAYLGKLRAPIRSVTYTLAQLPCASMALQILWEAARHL
Method: mPGES‐1 washout assay. Microsomes derived from A549 cells expressing mPGES‐1 were incubated with low (1 μM) or high concentrations (10 μM) of compound 1 d. After 15 min an aliquot of the sample containing 10 μM 1 d was diluted 10‐fold with buffer to reach a final concentration of 1 μM. After another 5 min the substrate PGH2 (20 μM) was added. The reaction was stopped after 60 s to determine PGE2 formation. Washout data are presented as means of residual activity ± SD in % of vehicle treated control for n=3 independent experiments. Outliers were determined using Grubb's test (GraphPad Software, La Jolla, CA). Samples were not blinded.

[5] = target: T4, 5‐LOX/FLAP interaction (Homo sapiens, UniProt P20292); experiment: In situ proximity ligation assay of 5-LOX/FLAP interaction in HEK293 cells; assay type: cell-based; details: HEK293 cells expressing 5-LOX and FLAP, 2.5 μM A23187; 1 d 3 μM
T4 construct: expressed in transfected cells; host or cells: HEK293 cells stably transfected with 5-LOX and FLAP
T4 sequence (P20292 1-161): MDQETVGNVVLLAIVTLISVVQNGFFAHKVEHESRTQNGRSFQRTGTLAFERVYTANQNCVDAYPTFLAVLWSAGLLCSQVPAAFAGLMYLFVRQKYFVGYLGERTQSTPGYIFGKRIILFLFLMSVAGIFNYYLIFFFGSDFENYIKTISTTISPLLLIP
Method: Cell culture. The human embryonic kidney cell line HEK293 was cultured as monolayer at 37 °C and 5 % CO2 in DMEM High glucose containing 10 % heat‐inactivated fetal calf serum (FCS), 100 U/mL penicillin and 100 μg/mL streptomycin. HEK293 cells stably expressing human recombinant 5‐LOX and FLAP were selected by 400 μg/mL geneticin and 200 μg/mL hygromycin B, respectively, as described before.[21]
Analysis of 5‐LOX/FLAP interaction by in situ proximity ligation assay. The manufacturer's protocol[46] for proximity ligation assay was used to detect in situ interaction of 5‐LOX with FLAP in HEK293 cells stably expressing both proteins as reported elsewhere.[24] Cells were pretreated with test compounds for 10 min at 37 °C, then treated with 2.5 μM Ca^2+‐ionophore A23187 for another 10 min, fixed, and incubated with primary antibody overnight as described before.[24] Samples were then incubated for 1 h (37 °C) with species‐specific secondary antibodies conjugated with oligonucleotides (PLA probe anti‐mouse MINUS and anti‐rabbit PLUS). The antibody‐bound oligonucleotides formed a DNA circle by addition of ligase (30 min, 37 °C). […] Protein‐protein‐interactions occurred as magenta fluorescent spots analyzed with an Axiovert 200 M microscope (Carl Zeiss) and a Plan Neofluar×40/1.3 Oil (DIC III) objective (Carl Zeiss).

[6] = target: T4, 5‐LOX/FLAP interaction; design: method as in PMID 24905297, PMID 28839250; details: HEK cells, same experimental conditions; cited from earlier work
[7] = target: T3, mPGES‐1; details: cell-free; cited from earlier work

| SMILES | IC50 [1] [µM] | inhibition of LTC4S activity (in words) [1] | IC50 ([2]; Homo sapiens, 5 h) [µM] | also measured |
| --- | --- | --- | --- | --- |
| COCCc1ccc(OCc2ccc(-c3cc(F)c([N+](=O)[O-])cc3[N+](=O)[O-])cc2)cc1 [1 e] | > 100 | did not show inhibitory activity | 3.31 ± 0.27 |  |
| O=[N+]([O-])c1cc([N+](=O)[O-])c(-c2ccccc2COc2cccc(C(F)(F)F)c2)cc1F [1 d] |  | significantly inhibited LTC4S activity |  | IC50 [3]: 3.35 ± 0.22 µM; IC50 ([1]; microsomes of HEK293 cells expressing human recombinant LTC4S, 1 μM LTA4-methyl ester, read-out: IC50 cell‐free LTC4S): 0.93 ± 0.04 µM; residual mPGES-1 enzyme activity ([4]; 1 μM 1 d): 83.3%; residual mPGES-1 enzyme activity ([4]; 10 μM 1 d): 21.3%; mPGES-1 enzymatic activity after washout ([4]; 10-fold dilution from 10 to 1 μM): 72.5%; mechanism of mPGES-1 inhibition ([4]; washout experiment): reversible mechanism of inhibition; IC50 ([2]; human neutrophils, 2.5 μM A23187, LTB4, its trans isomers and 5-H(p)ETE): 1.4 ± 0.09 µM; effect on 5‐LOX/FLAP interaction (PLA) [5]: able to block the 5‐LOX/FLAP interaction |
| CC(c1cc2ccccc2s1)N(O)C(N)=O (stereo not drawn) [zileuton] |  |  |  | effect on 5‐LOX/FLAP interaction (PLA), earlier reports [6]: inefficiency |
| O=[N+]([O-])c1cc([N+](=O)[O-])c(-c2ccc(OCc3ccccc3)cc2)cc1F [1 b] | > 100 | did not show inhibitory activity | > 100 | IC50 [7]: 0.6 ± 1.2 µM |
| O=[N+]([O-])c1cc([N+](=O)[O-])c(-c2ccc(COc3cccc(C(F)(F)F)c3)cc2)cc1F [1 a] | 1.68 ± 0.21 | significantly inhibited LTC4S activity | 3.93 ± 0.24 |  |
| O=[N+]([O-])c1cc([N+](=O)[O-])c(-c2ccc(COc3cccc4ccccc34)cc2)cc1F [1 c] | > 100 | did not show inhibitory activity | 4.18 ± 0.16 |  |
| CC(C)c1ccc2c(c1)c(SC(C)(C)C)c(CC(C)(C)C(=O)O)n2Cc1ccc(Cl)cc1 [MK886] |  |  |  | effect on 5‐LOX/FLAP interaction (PLA), earlier reports [6]: does block the interaction |
